{
  "source": "the NIST ThermoML archive (doi:10.1021/acs.jced.8b01165)",
  "key": {"[1]": {"conditions": "Crystal; DSC"}, "[2]": {"assay": "Molar enthalpy of transition or fusion", "conditions": "Crystal; DSC"}},
  "note": "Numbers after ± are expanded uncertainties.",
  "data": [
    {"compound": "C=C(C)C1Cc2c(ccc3c2OC2COc4cc(OC)c(OC)cc4C2C3=O)O1", "note": "(configuration not stated)", "values": [
      {"measurement": "Triple point temperature", "setting": "[1]", "result": "435.89 ± 1", "unit": "K"},
      {"measurement": "Molar enthalpy of transition or fusion", "setting": "[2]", "result": "6.8 ± 0.203", "unit": "kcal/mol"}
    ]}
  ]
}
